Laboratory results as given in EP0354522A1, “Use of alpha-aminoboronic acid derivatives in prevention and treatement of viral diseases” (HOECHST AKTIENGESELLSCHAFT, priority 1988, dated 1990).

Molecular target: T1, HIV-Protease (Human immunodeficiency virus type 1 group M subtype B, UniProt P04585)
T1 construct: Max-Planck-Institut für Molekulare Genetik, Berlin
Assay: HIV protease test (cleavage of heptapeptide Ser-Phe-Asn-Phe-Pro-Gln-Ile, HPLC quantification of Ser-Phe-Asn-Phe)
Assay type: biochemical
Details: 2 h, 37°C; for IC50: cloned HIV protease, pH ca. 6,0; for activity at 100 µM: residual enzyme activity at 10^-4 M inhibitor, 100 % = mean of runs without inhibitor, pH ca. 6,0, 1 % DMSO, read-out: Restakt. bei 10^-4 M
Description: Als synthetisches Substrat ist ein Heptapeptid der Sequenz Ser-Phe-Asn-Phe-Pro-Gln-Ile geeignet. Diese Sequenz tritt im natürlichen Substrat der Protease auf und liefert bei der autokatalytischen Freisetzung nach einer Phe-Pro-Spaltung den N-terminalen Beginn der Proteasesequenz (Pro-Gln-Ile...).
Es wird eine klonierte HIV-Protease (Max-Planck-Institut für Molekulare Genetik, Berlin) benutzt. [drawing 5]
Von den Reaktionsprodukten wird Ser-Phe-Asn-Phe zur Abtrennung und quantitativen Bestimmung mittels HPLC herangezogen.
Nach 2 Stunden bei 37°C werden die Ansätze mit 225 µl HPLC-Elutionsmittel (s.u.) gestoppt. Etwa 150 µl des zentrifugierten Überstands (Eppendorf-Zentrifuge) werden in Mikrovials gefüllt. Das Injektionsvolumen für die HPLC-Trennung beträgt 20 µl. Ser-Phe-Asn-Phe wird durch Vergleich mit einem externen Standard bekannter Konzentration (0,5 µg/ 20 µl) quantitativ bestimmt und stellt die Meßgröße der Enzymaktivität (µg Tetrapeptid pro 20 µl Meßprobe) dar. Bezugswert (= 100 % Enzymaktivität) ist der Mittelwert aus 2 oder mehr Ansätzen ohne Inhibitor. Als Standard-Inhibitor wird Pepstatin A (10⁻⁴ oder 10⁻⁵ M) verwendet.
• a) Substratlösung: 2 mg Ser-Phe-Asn-Phe-Pro-Gln-Ile werden in 1 ml MGTE 15-Puffer gelöst. • b) Testsubstanzen: Diese werden 10⁻² oder 10⁻³ M in Dimethylsulfoxid (DMSO) gelöst und 1 : 40 mit MGTE 15-Puffer verdünnt; 10 µl dieser Lösung werden pro Ansatz verwendet; die Endkonzentration des Präparates beträgt 10⁻⁴ bzw. 10⁻⁵ M; die DMSO-Konzentration in allen Testansätzen ist 1 %. Für IC₅₀-Bestimmungen wird das Präparat, ausgehend von 10⁻² M, mit 100 % DMSO in der geeigneten Weise verdünnt. • c) Proteaselösung: Das Enzym wird mit MGTE 25-Puffer auf eine geeignete Konzentration verdünnt. • d) MGTE 15/25-Puffer 20 mM Morpholinoethansulfonsäure (MES) 15 (25) % (w/v) Glyzerin 0,1 % (v/v) Triton® X 100 (vgl. Merck Index 10, 6601) 5 mM EDTA 0,5 M NaCl 1 mM Dithiothreit (nur für MGTE 25) 1 mM Phenylmethylsulfonylfluorid (PMSF) Der pH-Wert soll ca. 6,0 betragen. • e) HPLC-Elutionsmittel: Eine 0,1 M Phosphorsäure-Lösung wird mit Triethylamin auf pH 2,5 eingestellt. Aus dieser Lösung wird ein Phosphorsäure-Acetonitril-Gemisch mit 22,6 Gewichts-Prozent Acetonitril hergestellt.
Säule: Radial Pak LC Cartridge, 8 mm/C18, 5 µ (der Fa. Waters, USA). Fluß: 1 ml/min Detektoreinstellung: 215 nm, 0,08 AU Zeit pro Analyse: 12 min; Retentionszeiten: Heptapeptid ca. 9,5 min, Tetrapeptid ca. 5,2 min Laufmittel: 77,4 Gew.-% 0,1 M H₃PO₄/pH 2,5 22,6 Gew.-% Acetonitril

Structure (SMILES)	IC50	activity at 100 µM
CCC[C@H](NC(=O)[C@H](Cc1ccccc1)NC(=O)CC(C)C)C(=O)NC(Cc1cccc2ccccc12)B1OC(C)(C)C(C)(C)O1 (stereo partly drawn) [Beispiel 10, Iva-Phe-Nva-[(1-Naphthylmethyl),(4,4,5,5-tetramethyl-1,3,2-dioxaborolan-2-yl)]methylamid]		77%
CC(C)CC(NC(=O)[C@H](Cc1c[nH]cn1)NC(=O)C(Cc1cccc2ccccc12)Cc1cccc2ccccc12)B1OC(C)(C)C(C)(C)O1 (stereo partly drawn) [Beispiel 19, Bis-(1-Naphthylmethyl)acetyl-His-[3-methyl,l-(4,4,5,5-tetramethyl-1,3,2-dioxaborolan-2-yl)]butylamid]		37%
CC(C)[C@H](NC(=O)C(Cc1ccccc1)CS(=O)(=O)C(C)(C)C)C(=O)NC(CC1CCCCC1)B1OC(C)(C)C(C)(C)O1 (stereo partly shown) [Beispiel 38, (2-Benzyl,3-t-butylsulfonyl)propionyl-Val-[Cyclohexylmethyl,(4,4,5,5-tetramethyl-1,3,2-dioxaborolan-2-yl)]methylamid]	9 µM	11%
CCC[C@H](NC(=O)C(Cc1cccs1)CS(=O)(=O)C(C)(C)C)C(=O)NC(CC1CCCCCC1)B1OC(C)(C)C(C)(C)O1 (stereo partly shown) [Beispiel 40, [3-t-Butylsulfonyl,2-(2-thienylmethyl)]propionyl-Nva-[Cycloheptylmethyl,(4,4,5,5-tetramethyl-1,3,2-dioxaborolan-2-yl)]methylamid]		46%
CCC[C@H](NC(=O)C(Cc1cccc2ccccc12)CS(=O)(=O)C(C)(C)C)C(=O)NC(CC(C)C)B1OC(C)(C)C(C)(C)O1 (stereo partly shown) [Beispiel 41, [3-t-Butylsulfonyl,2-(1-naphthylmethyl)]propionyl-Nva-[3-methyl,1-(4,4,5,5-tetramethyl-1,3,2-dioxaborolan-2-yl)]butylamid]		35%
CCC[C@H](NC(=O)C(Cc1ccccc1)CS(=O)(=O)C(C)(C)C)C(=O)NC(Cc1ccccc1)B1OC(C)(C)C(C)(C)O1 (stereo partly shown) [Beispiel 44]		72%
CC1(C)OB(C(Cc2ccccc2)NC(=O)[C@H](CC(N)=O)NC(=O)C(Cc2ccccc2)CS(=O)(=O)C(C)(C)C)OC1(C)C (stereo partly shown) [Beispiel 45, (2-Benzyl,3-t-butylsulfonyl)propionyl-Asn-[Benzyl,(4,4,5,5-tetramethyl-1,3,2-dioxaborolan-2-yl)]methylamid]	100 µM	49%
CCC[C@H](NC(=O)C(Cc1ccccc1)CS(=O)(=O)C(C)(C)C)C(=O)NC(B1OC(C)(C)C(C)(C)O1)C1CCCCCC1 (stereo partly shown) [Beispiel 46]	40 µM	45%
CCC[C@H](NC(=O)C(Cc1cccc2ccccc12)CS(=O)(=O)C(C)(C)C)C(=O)NC(CC1CCCC1)B1OC(C)(C)C(C)(C)O1 (stereo partly shown) [Beispiel 47, [3-t-Butylsulfonyl,2-(1-naphthylmethyl)]propionyl-Nva-[Cyclopentylmethyl,(4,4,5,5-tetramethyl-1,3,2-dioxaborolan-2-yl)]methylamid]	10 µM	16%
CCC[C@H](NC(=O)C(Cc1cccc2ccccc12)CS(=O)(=O)C(C)(C)C)C(=O)NC(CC(CC)CC)B1OC(C)(C)C(C)(C)O1 (stereo partly shown) [Beispiel 48, [3-t-Butylsulfonyl,2-(1-naphthylmethyl)]propionyl-Nva-[3-Ethyl,1-(4,4,5,5-tetramethyl-1,3,2-dioxaborolan-2-yl)]pentylamid]	60 µM	32%
CCC[C@H](NC(=O)C(Cc1ccccc1)CS(=O)(=O)C(C)(C)C)C(=O)NC(CC(CC)CC)B1OC(C)(C)C(C)(C)O1 (stereo partly shown) [Beispiel 49, (2-Benzyl,3-t-butylsulfonyl)propionyl-Nva-[3-Ethyl,1-(4,4,5,5-tetramethyl-1,3,2-dioxaborolan-2-yl)]pentylamid]		46%

Other lines, results leading:

IC50	activity at 100 µM	Structure (SMILES)
40 µM	28%	CCC[C@H](NC(=O)[C@H](Cc1ccccc1)NC(=O)CC(C)C)C(=O)NC(CC1CCCCC1)B1OC(C)(C)C(C)(C)O1 (stereo partly drawn) [Beispiel 1, Iva-Phe-Nva-[Cyclohexylmethyl,(4,4,5,5-tetramethyl-1,3,2-dioxaborolan-2-yl)]methylamid]
	74%	CCCC[C@H](NC(=O)[C@H](Cc1ccccc1)NC(=O)CC(C)C)C(=O)NC(CC1CCCCC1)B1OC(C)(C)C(C)(C)O1 (stereo partly drawn) [Beispiel 2, Iva-Phe-Nle-[Cyclohexylmethyl,(4,4,5,5-tetramethyl-1,3,2-dioxaborolan-2-yl)]methylamid]
	61%	CC(C)CC(=O)N[C@@H](Cc1ccccc1)C(=O)N[C@@H](Cc1c[nH]cn1)C(=O)NC(CC1CCCCC1)B1OC(C)(C)C(C)(C)O1 (stereo partly drawn) [Beispiel 3, Iva-Phe-His-[Cyclohexylmethyl,(4,4,5,5-tetramethyl-1,3,2-dioxaborolan-2-yl)]methylamid]
	96%	CC(C)CC(=O)N[C@@H](Cc1cccs1)C(=O)N[C@@H](Cc1c[nH]cn1)C(=O)NC(CC1CCCCC1)B1OC(C)(C)C(C)(C)O1 (stereo partly shown) [Beispiel 4]
	96%	CCC[C@H](NC(=O)[C@H](Cc1ccccc1)NC(=O)CC(C)C)C(=O)NC(CC1CCCCCCC1)B1OC(C)(C)C(C)(C)O1 (stereo partly shown) [Beispiel 11]
	64%	CCCC(NC(=O)C(Cc1ccccc1)NC(=O)CC(C)C)C(=O)NC(CC1CCCCC1)B1OC2CC3CC(C3(C)C)C2(C)O1 (stereo not drawn) [Beispiel 12, Iva-Phe-Nva-[Cyclohexylmethyl, (-)-Pinandioxyboryl]methylamid]
	75%	CCC[C@H](NC(=O)[C@H](Cc1ccccc1)NC(=O)CC(C)C)C(=O)NC(CC1CCC(C)CC1)B1OC(C)(C)C(C)(C)O1 (stereo partly drawn) [Beispiel 14, Iva-Phe-Nva-[(4-Methylcyclohexyl)methyl,(4,4,5,5-tetramethyl-1,3,2-dioxaborolan-2-yl)]methylamid]
	86%	CCC[C@H](NC(=O)[C@H](Cc1ccccc1)NC(=O)CC(C)C)C(=O)NC(CC1CCCCCC1)B1OC(C)(C)C(C)(C)O1 (stereo partly drawn) [Beispiel 15, Iva-Phe-Nva- (Cycloheptylmethyl,(4,4,5,5-tetramethyl-1,3 2-dioxaborolan-2-yl)]methylamid]
	70%	CC(C)CC(=O)N[C@@H](Cc1ccccc1)C(=O)N(C)[C@@H](Cc1ccccc1)C(=O)NC(CC1CCCCC1)B1OC(C)(C)C(C)(C)O1 (stereo partly shown) [Beispiel 16]
200 µM	52%	CC(C)CC(=O)N[C@@H](Cc1ccccc1)C(=O)N[C@@H](Cc1c[nH]cn1)C(=O)NC(CC1CCCCCCC1)B1OC(C)(C)C(C)(C)O1 (stereo partly drawn) [Beispiel 17, Iva-Phe-His-[Cyclooctylmethyl,(4,4,5,5-tetramethyl-1,3,2-dioxaborolan-2-yl)]methylamid]
	36%	CC(C)CC(=O)N[C@@H](Cc1ccccc1)C(=O)N[C@@H](Cc1c[nH]cn1)C(=O)NC(CC1CCCCCC1)B1OC(C)(C)C(C)(C)O1 (stereo partly drawn) [Beispiel 18, Iva-Phe-His-[Cycloheptylmethyl,(4,4,5,5-tetramethyl-1,3,2-dioxaborolan-2-yl)]methylamid]
40 µM	22%	CCC[C@H](NC(=O)C(Cc1ccccc1)CS(=O)(=O)C(C)(C)C)C(=O)NC(CC1CCCCC1)B1OC(C)(C)C(C)(C)O1 (stereo partly shown) [Beispiel 35, (2-Benzyl,3-t-butylsulfonyl)propionyl-Nva-[Cyclohexylmethyl,(4,4,5,5-tetramethyl-1,3,2-dioxaborolan-2-yl)]methylamid]
